Laboratory results reported in patent US10287277B2, “Fumagillol derivatives and polymorphs thereof” (SynDevRx, Inc., priority 2015, dated 2019).

Tests used:
U266 (Myeloma) = test: Single agent cell viability assay (CellTiter-Glo), 72 h continuous exposure; type: cell-based; details: Homo sapiens, U-266, U266 cells
Description: (§1) The half-maximal inhibitory concentration(s) (IC50) of Formula I as a single agent against a panel of human hematological tumor cell lines was investigated. All cell lines were grown in their respective proper growth media supplemented with 5-10% FBS and housed in an atmosphere of 5% CO2 at 37° C.
(§2) Cell Viability Assay—72 Hours Continuous Exposure Time
(§3) 1. 0 hr: Cells were plated in growth media in 96-well microtiter plates at a 200 μL volume. Cells were incubated for 24 hours at 37° C. in a humidified incubator.
(§4) 2. 24 hr: The test agent's drug doses were achieved using HP D300 Digital Dispenser. Briefly, the digital dispenser added test agent in a DMSO solvent at precise volumes to media containing wells. Control wells received equivolumes of DMSO that test agents wells received. Following drugging, cells were exposed at the concentrations and dilutions described in Table 20 for 72 hours at 37° C. in a humidified incubator.
(§5) 3. 72 hr: Following 72 hour exposure, 100 μl of a 1:1 mixture of sterile water and CellTiter-Glo® Reagent was added to each well. The plates are incubated for 60 minutes at room temperature. After incubation, luminescence was recorded using a luminometer. The results are shown below in Table 21 and in FIGS. 15A, 15B, 15C and 15D.
(§6) Data is expressed as the percent cell growth of the untreated (vehicle) control calculated from the luminescence signals. The surviving fraction of cells was determined by dividing the mean luminescence values of the test agents by the mean luminescence values of untreated control. The inhibitory concentration value for the test agent(s) and control was estimated using Prism 6 software (GraphPad Software, Inc.) by curve-fitting the data using the non-linear regression analysis.

[1] = test system: Jeko-1 (Mantle Cell Lymphoma); test: as above; type: cell-based; details: Homo sapiens, Jeko-1 cells
Description: as §1, §2, §3, §4, §5, §6

[2] = Storage stability, 40° C., 75% RH; type: physicochemical; details: for Appearance / Impurity Compound 2 / Impurity Compound 4 / Impurity Compound 5 / Largest individual unknown impurity / Total Impurities / Water Content: 40° C., 75% RH
Description: (§7) As shown below, the compounds can remain >99% pure after being held at 25° C. and 60% relative humidity for six months. The compounds can remain >95% pure after being held at 40° C. and 75% relative humidity for six months.

[3] = Storage stability, 25° C., 60% RH; type: physicochemical; details: for Appearance / Impurity Compound 2 / Impurity Compound 4 / Impurity Compound 5 / Largest individual unknown impurity / Total Impurities / Water Content: 25° C., 60% RH
Description: as §7

BC-1 (B-Cell Lymphoma) = test: Single agent cell viability assay (CellTiter-Glo), 72 h continuous exposure; type: cell-based; details: Homo sapiens, BC1, BC-1 cells
Description: as §1, §2, §3, §4, §5, §6

[4] = test system: SU-DHL-10 (Diffuse Large B-Cell Lymphoma); test: as above; type: cell-based; details: Homo sapiens, SU-DHL10, SU-DHL-10 cells
Description: as §1, §2, §3, §4, §5, §6

[5] = Stability of salt forms versus free base (statement in words); details: comparison of free base, hemi-tartrate and benzenesulfonic acid salt

CC(C)C[C@H](NC(=O)[C@H](Cc1ccccc1)NC(=O)c1cnccn1)B(O)O [Bortezomib, reference compound]
IC50 (U266 (Myeloma)): 0.0024 µM
IC50 [1]: 0.4 µM

CO[C@@H]1[C@H](OC(=O)N[C@H]2CC[C@H](N)CC2)CC[C@]2(CO2)[C@H]1[C@@]1(C)O[C@@H]1CC=C(C)C.O=S(=O)(O)c1ccccc1 [Form II of Formula I, fumagill-6-yl N-(trans-4-aminocyclohexyl)carbamate benzenesulfonic acid salt]
Appearance ([2]; 0 Months): White powder,
Impurity Compound 2 ([2]; 0 Months): <0.1%
Impurity Compound 4 ([2]; 0 Months): <0.1%
Impurity Compound 5 ([2]; 0 Months): 0.1%
Largest individual unknown impurity ([2]; 0 Months): <0.1%
Total Impurities ([2]; 0 Months): 0.1%
Water Content ([2]; 0 Months): 0.41%
Appearance ([2]; 1 Month): White powder,
Impurity Compound 2 ([2]; 1 Month): 1.0%
Impurity Compound 5 ([2]; 1 Month): 0.1%
Largest individual unknown impurity ([2]; 1 Month): 0.2%
Total Impurities ([2]; 1 Month): 1.5%
Water Content ([2]; 1 Month): 1.54%
Appearance ([2]; 2 Months): White powder,
Impurity Compound 2 ([2]; 2 Months): 1.4%
Impurity Compound 4 ([2]; 2 Months): 0.3%
Impurity Compound 5 ([2]; 2 Months): 0.1%
Largest individual unknown impurity ([2]; 2 Months): 0.3%
Total Impurities ([2]; 2 Months): 2.4%
Water Content ([2]; 2 Months): 1.19%
Appearance ([2]; 3 Months): White powder,
Impurity Compound 2 ([2]; 3 Months): 1.6%
Impurity Compound 4 ([2]; 3 Months): 0.5%
Impurity Compound 5 ([2]; 3 Months): 0.2%
Largest individual unknown impurity ([2]; 3 Months): 0.4%
Total Impurities ([2]; 3 Months): 3.1%
Water Content ([2]; 3 Months): 2.57%
Appearance ([2]; 6 months): White powder,
Impurity Compound 2 ([2]; 6 months): 1.5%
Impurity Compound 4 ([2]; 6 months): 1.4%
Impurity Compound 5 ([2]; 6 months): 0.5%
Largest individual unknown impurity ([2]; 6 months): 0.3%
Total Impurities ([2]; 6 months): 4.2%
Water Content ([2]; 6 months): 3.19%
purity remaining after storage ([2]; held at 40° C. and 75% relative humidity for six months): > 95%
Appearance ([3]; 0 Months): White powder,
Impurity Compound 2 ([3]; 0 Months): <0.1%
Impurity Compound 4 ([3]; 0 Months): <0.1%
Impurity Compound 5 ([3]; 0 Months): 0.1%
Largest individual unknown impurity ([3]; 0 Months): <0.1%
Total Impurities ([3]; 0 Months): 0.1%
Water Content ([3]; 0 Months): 0.41%
Appearance ([3]; 1 Month): White powder,
Impurity Compound 2 ([3]; 1 Month): 0.3%
Impurity Compound 5 ([3]; 1 Month): 0.1%
Largest individual unknown impurity ([3]; 1 Month): <0.1%
Total Impurities ([3]; 1 Month): 0.5%
Water Content ([3]; 1 Month): 0.60%
Appearance ([3]; 2 Months): White powder,
Impurity Compound 2 ([3]; 2 Months): 0.4%
Impurity Compound 4 ([3]; 2 Months): 0.1%
Impurity Compound 5 ([3]; 2 Months): 0.1%
Largest individual unknown impurity ([3]; 2 Months): <0.1%
Total Impurities ([3]; 2 Months): 0.5%
Water Content ([3]; 2 Months): 0.57%
Appearance ([3]; 3 Months): White powder,
Impurity Compound 2 ([3]; 3 Months): 0.5%
Impurity Compound 4 ([3]; 3 Months): 0.1%
Impurity Compound 5 ([3]; 3 Months): 0.1%
Largest individual unknown impurity ([3]; 3 Months): <0.1%
Total Impurities ([3]; 3 Months): 0.7%
Water Content ([3]; 3 Months): 1.73%
Appearance ([3]; 6 months): White powder,
Impurity Compound 2 ([3]; 6 months): 0.6%
Impurity Compound 4 ([3]; 6 months): 0.1%
Impurity Compound 5 ([3]; 6 months): 0.1%
Largest individual unknown impurity ([3]; 6 months): <0.1%
Total Impurities ([3]; 6 months): 0.9%
Water Content ([3]; 6 months): 1.58%
purity remaining after storage ([3]; held at 25° C. and 60% relative humidity for six months): > 99%

COC1C(OC(=O)N[C@H]2CC[C@H](N)CC2)CC[C@]2(CO2)C1C1(C)O[C@@H]1CC=C(C)C (stereo partly drawn) [Formula I, (1R,4r)-4-(((((3R,4S,5S,6R)-5-methoxy-4-((2R,3R)-2-methyl-3-(3-methylbut-2-en-1-yl)oxiran-2-yl)-1-oxaspiro[2.5]octan-6-yl)oxy)carbonyl)amino)cyclohexan-1-aminium benzenesulfonate]
IC50 (U266 (Myeloma)): 54.6 µM
IC50 (BC-1 (B-Cell Lymphoma)): 20.4 µM
IC50 [1]: 30.7 µM
IC50 [4]: 6.2 µM

COc1cccc2c1C(=O)c1c(O)c3c(c(O)c1C2=O)C[C@@](O)(C(=O)CO)C[C@@H]3O[C@H]1C[C@H](N)[C@H](O)[C@H](C)O1 [Adriamycin, reference compound]
IC50 (BC-1 (B-Cell Lymphoma)): 0.02 µM
IC50 [4]: 0.00085 µM

COC1C(OC(=O)N[C@H]2CC[C@H](N)CC2)CCC2(CO2)C1C1(C)OC1CC=C(C)C (stereo partly drawn) [free base form of Formula I, fumagill-6-yl N-(trans-4-aminocyclohexyl)carbamate]
stability (in words) [5]: inherently unstable
